In assay [1] the test system is THP-1. In words: cell viability (% survival relative to DMSO control, bortezomib = 0%); higher = less cytotoxic. The following applies: 72 h. The gist of the method:
(§1)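 After 72 h at 37 °C with 5% CO2, cell viability in 384-well plates was measured by CellTiter-Glo luminescence. The plates held compounds pre-printed at 1, 10, 100, 1000 or 10000 nM in duplicate, and cells from 10 AML and 5 CML lines seeded at densities titrated to linear growth. Percent survival is the duplicate mean, normalised to vehicle as 100% and a 10 µM positive control as 0%.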

Assay [2] concerns LAMA-84. Described as above. Conditions: 72 h. The gist of the method: as §1

Eight compounds from the supplement of paper PMC8671470 can be followed below.

On to `CCCc1nn(C)c2c(O)nc(-c3cc(S(=O)(=O)N4CCN(C)CC4)ccc3OCC)nc12` [Sildenafil], for which the cell viability (in general, a read-out of living cells in per cent, often relative to untreated cells) in assay [1] (1 nM) was 90.3%; in assay [1] (10 nM), 99.4%; in assay [1] (100 nM) it was 97.1%; in assay [1] (1000 nM), 99.8%; in assay [1] (10000 nM), 101%; in assay [2] (1 nM) it was 91.3%. The cell viability in assay [2] (10 nM) was 98.8%; in assay [2] (100 nM), 92.1%; in assay [2] (1000 nM) it was 95%; in assay [2] (10000 nM), 103%.
As to `Cc1coc2c1C(=O)C(=O)c1c-2ccc2c(C)cccc12` [Tanshinone I], the cell viability was 109% in assay [1] (1 nM); 102% in assay [1] (10 nM); 98.9% in assay [1] (100 nM); 103% in assay [1] (1000 nM); 90.1% in assay [1] (10000 nM); 104% in assay [2] (1 nM). Moreover, the cell viability in assay [2] (10 nM) amounted to 105%; in assay [2] (100 nM), 101%; in assay [2] (1000 nM) it was 108%; in assay [2] (10000 nM), 95.4%.
In the case of `CN(C/C=C/C#CC(C)(C)C)Cc1cccc2ccccc12` [Terbinafine], the cell viability in assay [1] (1 nM) is 102%; in assay [1] (10 nM), 94.6%; in assay [1] (100 nM), 92%; in assay [1] (1000 nM), 100%; in assay [1] (10000 nM), 94.4%; in assay [2] (1 nM) it was 104%. Besides, the cell viability in assay [2] (10 nM) amounted to 97.7%; in assay [2] (100 nM), 110%; in assay [2] (1000 nM) it was 101%; in assay [2] (10000 nM), 93.9%.
On to `CCOC(=O)N1c2ccc(C(F)(F)F)cc2[C@@H](N(Cc2cc(C(F)(F)F)cc(C(F)(F)F)c2)C(=O)OC)C[C@H]1CC` [Torcetrapib], for which the cell viability was determined as 103% in assay [1] (1 nM); 97.6% in assay [1] (10 nM); 99.4% in assay [1] (100 nM); 101% in assay [1] (1000 nM); 92.2% in assay [1] (10000 nM); 116% in assay [2] (1 nM). The cell viability in assay [2] (10 nM) turned out to be 103%; in assay [2] (100 nM), 110%; in assay [2] (1000 nM), 95.6%; in assay [2] (10000 nM) it was 110%.
In the case of `Oc1cc(Cl)ccc1Oc1ccc(Cl)cc1Cl` [Triclosan], the cell viability worked out at 92.7% in assay [1] (1 nM); 98.5% in assay [1] (10 nM); 103% in assay [1] (100 nM); 108% in assay [1] (1000 nM); 92% in assay [1] (10000 nM); 102% in assay [2] (1 nM). The cell viability in assay [2] (10 nM) came to 91.1%; in assay [2] (100 nM), 103%; in assay [2] (1000 nM), 108%; in assay [2] (10000 nM) it was 66.5%.
Turning to `COc1cc2c(NC3CCN(C)CC3)nc(N3CCCN(C)CC3)nc2cc1OCCCN(C)C` [UNC0224], the cell viability worked out at 103% in assay [1] (1 nM); 102% in assay [1] (10 nM); 93.8% in assay [1] (100 nM); 93% in assay [1] (1000 nM); 79.7% in assay [1] (10000 nM); 91.1% in assay [2] (1 nM). Also, the cell viability in assay [2] (10 nM) was determined as 106%; in assay [2] (100 nM), 96.5%; in assay [2] (1000 nM), 95.9%; in assay [2] (10000 nM), 95.8%.
`CC(C)C[C@H](NC(=O)[C@@H](O)[C@H](N)Cc1ccccc1)C(=O)O` [Ubenimex]: the cell viability was 89.2% in assay [1] (1 nM); 97.9% in assay [1] (10 nM); 93.1% in assay [1] (100 nM); 84.8% in assay [1] (1000 nM); 94.8% in assay [1] (10000 nM); 115% in assay [2] (1 nM). Besides, the cell viability in assay [2] (10 nM) turned out to be 101%; in assay [2] (100 nM) it was 103%; in assay [2] (1000 nM), 101%; in assay [2] (10000 nM), 101%.
`O=P(O)(O)C(O)(Cn1ccnc1)P(=O)(O)O` [Zoledronic acid]: the cell viability was found to be 104% in assay [1] (1 nM); 105% in assay [1] (10 nM); 91.5% in assay [1] (100 nM); 89.1% in assay [1] (1000 nM); 99.5% in assay [1] (10000 nM); 99.5% in assay [2] (1 nM). In addition, the cell viability was found to be 104% in assay [2] (10 nM), 100% in assay [2] (100 nM), 98.2% in assay [2] (1000 nM) and 99.2% in assay [2] (10000 nM).
